Assay results as given in ChEMBL document CHEMBL1201862, “PubChem BioAssay data set” (2004).
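Cultured in 96-well plates, cells were exposed to test compound for 48 hours across five concentrations. GI50: concentration for 50% inhibition of growth.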 Activity calls are given as the source filed them. No stated cut-off is given here; in the data, active = GI50 up to about 1.1 µM and inactive = higher.

Columns and labels:
Assay in all cases: NCI-60 cell line screen, 48 h
[1] = test system: MOLT-4
[2] = test system: BT-549
[3] = test system: EKVX
[4] = test system: OVCAR-8
[5] = test system: SR
[6] = test system: A549
[7] = test system: HT-29
[8] = test system: DU-145
[9] = test system: NCI-H226
[10] = test system: PC-3
[11] = test system: NCI-H23
[12] = test system: HL-60
[13] = test system: CCRF-CEM
[14] = test system: RPMI-8226
[15] = test system: HCT-15
[16] = test system: RXF 393
[17] = test system: SW-620
[18] = test system: SN12C
[19] = test system: UO-31
[20] = test system: NCI-H460
[21] = test system: OVCAR-5
[22] = test system: SNB-19
[23] = test system: SF-539
[24] = test system: T47D
[25] = test system: U-251
[26] = test system: MDA-N
[27] = test system: SK-OV-3
[28] = test system: K562
[29] = test system: HCC 2998
[30] = test system: SK-MEL-28
[31] = test system: MDA-MB-231
[32] = test system: HCT-116
[33] = test system: SNB-75
[34] = test system: OVCAR-4
[35] = test system: NCI/ADR-RES
[36] = test system: NCI-H522
[37] = test system: MCF7
[38] = test system: Hs-578T
[39] = test system: A498
[40] = test system: SF-295
[41] = test system: SF-268
[42] = test system: UACC-257
[43] = test system: IGROV-1
[44] = test system: ACHN
[45] = test system: SK-MEL-2
[46] = test system: SK-MEL-5
[47] = test system: LOX IMVI
[48] = test system: HOP-92
[49] = test system: OVCAR-3
[50] = test system: UACC-62
[51] = test system: HOP-62
[52] = test system: COLO 205
[53] = test system: Malme-3M
[54] = test system: 786-0
[55] = test system: TK-10
[56] = test system: KM12
[57] = test system: MDA-MB-435
[58] = test system: M14
[59] = test system: CAKI-1

SMILES: CN(NC(=O)CCCl)C1=NCCCCN1
- GI50 [1]: > 100 µM (inactive)
- GI50 [2]: > 100 µM (inactive)
- GI50 [3]: > 100 µM (inactive)
- GI50 [4]: > 100 µM (inactive)
- GI50 [5]: > 100 µM (inactive)
- GI50 [6]: > 100 µM (inactive)
- GI50 [7]: > 100 µM (inactive)
- GI50 [8]: > 100 µM (inactive)
- GI50 [9]: > 100 µM (inactive)
- GI50 [10]: > 100 µM (inactive)
- GI50 [11]: > 100 µM (inactive)
- GI50 [12]: > 100 µM (inactive)
- GI50 [13]: > 100 µM (inactive)
- GI50 [14]: > 100 µM (inactive)
- GI50 [15]: > 100 µM
- GI50 [16]: > 100 µM (inactive)
- GI50 [17]: > 100 µM (inactive)
- GI50 [18]: > 100 µM (inactive)
- GI50 [19]: > 100 µM (inactive)
- GI50 [20]: > 100 µM (inactive)
- GI50 [21]: > 100 µM (inactive)
- GI50 [22]: > 100 µM (inactive)
- GI50 [23]: > 100 µM (inactive)
- GI50 [24]: > 100 µM (inactive)
- GI50 [25]: > 100 µM (inactive)
- GI50 [26]: > 100 µM (inactive)
- GI50 [27]: > 100 µM (inactive)
- GI50 [28]: > 100 µM (inactive)
- GI50 [29]: > 100 µM (inactive)
- GI50 [30]: > 100 µM (inactive)
- GI50 [31]: > 100 µM (inactive)
- GI50 [32]: > 100 µM (inactive)
- GI50 [33]: > 100 µM (inactive)
- GI50 [34]: > 100 µM (inactive)
- GI50 [35]: > 100 µM (inactive)
- GI50 [36]: > 100 µM (inactive)
- GI50 [37]: > 100 µM (inactive)
- GI50 [38]: > 100 µM (inactive)
- GI50 [39]: > 100 µM (inactive)
- GI50 [40]: > 100 µM (inactive)
- GI50 [41]: > 100 µM (inactive)
- GI50 [42]: > 100 µM (inactive)
- GI50 [43]: > 100 µM (inactive)
- GI50 [44]: > 100 µM (inactive)
- GI50 [45]: > 100 µM (inactive)
- GI50 [46]: > 100 µM (inactive)
- GI50 [47]: > 100 µM (inactive)
- GI50 [48]: > 100 µM (inactive)
- GI50 [49]: > 100 µM (inactive)
- GI50 [50]: > 100 µM (inactive)
- GI50 [51]: > 100 µM (inactive)
- GI50 [52]: > 100 µM (inactive)
- GI50 [53]: > 100 µM (inactive)
- GI50 [54]: > 100 µM (inactive)
- GI50 [55]: > 100 µM (inactive)
- GI50 [56]: > 100 µM (inactive)
- GI50 [57]: > 100 µM (inactive)
- GI50 [58]: > 100 µM (inactive)

SMILES: O=C1c2c(Cl)c(Cl)c(Cl)c(Cl)c2C(=O)N1CCN(c1c(Cl)ssc1=O)c1c(Cl)ssc1=O
- GI50 [1]: 10.3 µM (inactive)
- GI50 [2]: 30.9 µM (inactive)
- GI50 [3]: 32.1 µM (inactive)
- GI50 [4]: 21.7 µM (inactive)
- GI50 [5]: 20 µM (inactive)
- GI50 [6]: > 100 µM (inactive)
- GI50 [7]: 19.5 µM (inactive)
- GI50 [8]: 19 µM (inactive)
- GI50 [9]: > 100 µM (inactive)
- GI50 [10]: 22.9 µM (inactive)
- GI50 [11]: 40.9 µM (inactive)
- GI50 [12]: 30.2 µM (inactive)
- GI50 [13]: 4.36 µM (inactive)
- GI50 [15]: 19.5 µM
- GI50 [16]: 16.4 µM (inactive)
- GI50 [17]: 22.5 µM (inactive)
- GI50 [18]: 23.4 µM (inactive)
- GI50 [19]: 18.2 µM (inactive)
- GI50 [20]: 32.1 µM (inactive)
- GI50 [21]: 50.1 µM (inactive)
- GI50 [22]: > 100 µM (inactive)
- GI50 [23]: 19.1 µM (inactive)
- GI50 [24]: 17.1 µM (inactive)
- GI50 [25]: 95.9 µM (inactive)
- GI50 [26]: 18.5 µM (inactive)
- GI50 [27]: > 100 µM (inactive)
- GI50 [28]: 20.7 µM (inactive)
- GI50 [29]: 21.2 µM (inactive)
- GI50 [30]: 58.3 µM (inactive)
- GI50 [59]: 17.5 µM (inactive)
- GI50 [31]: 36.1 µM (inactive)
- GI50 [32]: 16.1 µM (inactive)
- GI50 [33]: 31.6 µM (inactive)
- GI50 [34]: 18.2 µM (inactive)
- GI50 [35]: 49.3 µM (inactive)
- GI50 [36]: 23.2 µM (inactive)
- GI50 [37]: 19.6 µM (inactive)
- GI50 [38]: > 100 µM (inactive)
- GI50 [39]: > 100 µM (inactive)
- GI50 [40]: > 100 µM (inactive)
- GI50 [41]: 71.9 µM (inactive)
- GI50 [42]: 16.9 µM (inactive)
- GI50 [43]: 46.2 µM (inactive)
- GI50 [44]: 18.2 µM (inactive)
- GI50 [45]: 24.2 µM (inactive)
- GI50 [46]: > 100 µM (inactive)
- GI50 [47]: 21.9 µM (inactive)
- GI50 [48]: 20.1 µM (inactive)
- GI50 [49]: 18.7 µM (inactive)
- GI50 [50]: 19.3 µM (inactive)
- GI50 [51]: > 100 µM (inactive)
- GI50 [52]: 18.2 µM (inactive)
- GI50 [53]: 25.2 µM (inactive)
- GI50 [54]: 18.2 µM (inactive)
- GI50 [55]: 18.7 µM (inactive)
- GI50 [56]: 54.8 µM (inactive)
- GI50 [57]: 19.8 µM (inactive)
- GI50 [58]: 21.5 µM (inactive)
